Experiments:
[1] = tested on: human lymphocytes; conditions: protection of human lymphocytes from free radical NO2; cited from earlier work
[2] = tested on: type I procollagen; test: Type I procollagen level in Hs68 human fibroblasts (Western blotting); format: cell-based; conditions: Hs68, without UV treatment, 24 hr; lycopene 0.1, 0.5, 10 μM; lycogen extract 1, 5, 10 μM
Protocol: The Hs68 human fibroblasts were treated with 20 J/cm^2 of UVA and then with 10, 25 and 50 μM of lycogen extract for 24 hr. The type I procollagen level was analyzed by using Western blotting analysis.
In addition, under condition without UV treatment, the Hs68 human fibroblasts were treated with 0.1, 0.5 and 10 μM lycopene (extracted from tomato) or 1, 5, 10 μM lycogen extract (extracted from photosynthetic bacteria of the present invention) for 24 hr. The type I procollagen level was analyzed by using Western blotting.

[3] = test tube studies; cited from earlier work

## CC(C)=CCC/C(C)=C/C=C/C(C)=C/C=C/C(C)=C/C=C/C=C(C)/C=C/C=C(C)/C=C/C=C(\C)CCC=C(C)C [lycopene]
[1]
  NO2 resistant effect relative to β-carotene: at least two times
[2]
  promotion of collagen proliferation (type I procollagen level): unable to promote collagen proliferation
[3]
  efficiency of singlet-oxygen quenching action relative to vitamin E: 100 times
